Assay results as given in patent US11919965B2, “Methods of treating multiple myeloma with bispecific anti-BCMA x anti-CD3 antibodies” (Regeneron Pharmaceuticals, Inc., priority 2019, dated 2024).

Experiments:
[1] = tested on: BCMA-expressing MOLP-8 multiple myeloma tumors; assay: Xenogenic tumor model, MOLP-8 + human PBMC s.c. in NSG mice, dose response (Example 13); assay type: in vivo, mouse
Method: To determine the in vivo efficacy of anti-BCMA×anti-CD3 bispecific antibodies (Abs), a xenogenic tumor study was performed. Immunodeficient NOD.Cg-Prkdc^scidII2rg^tm1Wjl/SzJ (NSG) mice were subcutaneously implanted with a mixture of 5×10^6 BCMA-expressing MOLP-8 human multiple myeloma tumor cells and 1×10^6 human peripheral blood mononuclear cells (PBMC) isolated from a normal, healthy donor. […] The mice were administered these Abs twice per week for a total of seven doses, and tumor growth was assessed over 56 days. While the BCMA+ MOLP-8 tumors grew similarly in the vehicle- and CD3-binding control-treated mice, both BCMA×CD3 Abs that were tested prevented the growth of tumors in a dose-dependent manner in vivo.
Implantation and measurement of xenogenic tumors: NSG mice were subcutaneously implanted with a mixture of 5×10^6 BCMA-expressing MOLP-8 multiple myeloma cells and 1×10^6 PBMC derived from a normal, healthy donor. […] The mice were administered Abs twice per week for a total of seven doses. Tumor growth was measured by caliper twice per week for the duration of the experiment.
Calculation of xenogenic tumor growth and inhibition: In order to determine tumor volume by external caliper, the greatest longitudinal diameter (length in mm) and the greatest transverse diameter (width in mm) were determined. Tumor volumes based on caliper measurements were calculated by the formula: Volume (mm^3)=(length× width^2)/2.

[2] = tested on: BCMA+ OPM-2-luciferase tumors; assay: Xenogenic tumor model, i.v. OPM-2-luciferase in PBMC-engrafted NSG mice, bioluminescence (Example 15); assay type: in vivo, mouse; conditions: 0.4 mg/kg
Method: (§1) To determine the in vivo efficacy of anti-BCMA×anti-CD3 bispecific antibodies (Abs), a xenogenic tumor study was performed. On day 0, immunodeficient NOD.Cg-Prkdc^scidII2rg^tm1Wjl/SzJ (NSG) mice were intravenously administered 2×10^6 BCMA^+ OPM-2 human multiple myeloma tumor cells that were engineered to also express firefly luciferase (OPM-2-luciferase cells). On day 10, the mice were intraperitoneally injected with 4×10^6 human peripheral blood mononuclear cells (PBMC) from a normal, healthy donor. […] The mice were administered these Abs twice more on days 25 and 28, for a total of three doses. Tumor growth was assessed through day 61 by measuring tumor bioluminescence (BLI) in anesthetized animals. As a positive control, a group of mice (n=5) was given only OPM-2-luciferase cells, but not PBMC or antibody.
as §1, with “Implantation and measurement” for “To determine the in vivo efficacy”, “of” for “of anti-BCMA×anti-CD3 bispecific antibodies (Abs), a”, “tumors:” for “tumor study was performed.”, “NOD.Cg-Prkdc^scidII2rg^tm1Wkl/SzJ” for “NOD.Cg-Prkdc^scidII2rg^tm1Wjl/SzJ”
Measurement of xenogenic tumor growth: BLI imaging was used to measure tumor burden. Mice were injected IP with 150 mg/kg of the luciferase substrate D-luciferin suspended in PBS. Five minutes after this injection, BLI imaging of the mice was performed under isoflurane anesthesia using the Xenogen IVIS system. Image acquisition was carried out with the field of view at D, subject height of 1.5 cm, and medium binning level with automatic exposure time determined by the Living Image Software. BLI signals were extracted using Living Image software: regions of interest were drawn around each tumor mass and photon intensities were recorded as p/s/cm2/sr.

monkey BCMA-MMH = assay: SPR (Biacore 4000) binding kinetics at 25° C.
Sequence of monkey BCMA-MMH (as listed by the source): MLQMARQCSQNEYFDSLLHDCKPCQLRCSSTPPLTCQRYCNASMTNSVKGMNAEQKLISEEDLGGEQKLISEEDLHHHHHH
Method: (§2) The CM5 Biacore sensor surface was derivatized by amine coupling with a monoclonal mouse anti-human Fc antibody (GE, #BR-1008-39) to capture purified anti-BCMA mAbs and anti-BCMA×anti-CD3 bispecific mAbs. All Biacore binding studies were performed in a buffer composed of 0.01M HEPES pH 7.4, 0.15M NaCl, 3 mM EDTA, 0.05% v/v Surfactant P20 (HBS-ET running buffer). […] Antigen samples were then injected over the anti-BCMA and anti-BCMA×anti-CD3 bispecific mAbs captured surfaces at a flow rate of 30 μL/minute. Antibody-reagent association was monitored for 5 minutes while dissociation in HBS-ET running buffer was monitored for 10 minutes. All of the binding kinetics experiments were performed at 25° C. Kinetic association (ka) and dissociation (kd) rate constants were determined by fitting the real-time sensorgrams to a 1:1 binding model using Scrubber 2.0c curve fitting software. Binding dissociation equilibrium constants (KD) and dissociative half-lives (t1/2) were calculated from the kinetic rate constants as: […]

monkey BCMA-MFC = assay: SPR (Biacore 4000) binding kinetics at 25° C.
Sequence of monkey BCMA-MFC (as listed by the source): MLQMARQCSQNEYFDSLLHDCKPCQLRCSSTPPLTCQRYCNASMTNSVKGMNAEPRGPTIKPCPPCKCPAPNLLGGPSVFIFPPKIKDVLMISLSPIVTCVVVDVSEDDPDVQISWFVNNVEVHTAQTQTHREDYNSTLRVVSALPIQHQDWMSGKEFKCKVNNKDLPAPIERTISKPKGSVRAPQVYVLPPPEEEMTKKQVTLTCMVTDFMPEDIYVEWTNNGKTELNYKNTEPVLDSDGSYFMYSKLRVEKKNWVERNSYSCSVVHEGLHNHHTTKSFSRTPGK
Method: as §2

“REGN5459: anti-BCMA×anti-CD3 bispecific antibody: mAb21581 BCMA heavy chain, mAb7221G20 CD3 heavy chain and common light chain; SEQ ID NOs 126, 128, 129” was tested, and the “Average Tumor Size (mm3) ± SEM on Day 3” value ([1]; 0.04 mg/kg) was 11.7 ± 2.1 mm3, the “Average Tumor Size (mm3) ± SEM on Day 7” value ([1]; 0.04 mg/kg) was 37.0 ± 5.7 mm3 and the “Average Tumor Size (mm3) ± SEM on Day 10” value ([1]; 0.04 mg/kg) was 104 ± 23.0 mm3. For the same substance, the “Average Tumor Size (mm3) ± SEM on Day 14” value ([1]; 0.04 mg/kg) was 356.7 ± 84.6 mm3, the “Average Tumor Size (mm3) ± SEM on Day 17” value ([1]; 0.04 mg/kg) was 645.6 ± 140.9 mm3 and the “Average Tumor Size (mm3) ± SEM on Day 21” value ([1]; 0.04 mg/kg) was 1442.4 ± 310.7 mm3. The “Average Tumor Size (mm3) ± SEM on Day 23” value ([1]; 0.04 mg/kg) was 2124.4 ± 444.1 mm3, the “Average Tumor Size (mm3) ± SEM on Day 28” value ([1]; 0.04 mg/kg) was 1939.3 ± 840.6 mm3 and the “Average Tumor Size (mm3) ± SEM on Day 31” value ([1]; 0.04 mg/kg) was 2688.7 ± 1176.6 mm3. The “Average Tumor Size (mm3) ± SEM on Day 35” value ([1]; 0.04 mg/kg) was 612.1 ± 0 mm3, the “Average Tumor Size (mm3) ± SEM on Day 3” value ([1]; 0.4 mg/kg) was 14.0 ± 1.6 mm3 and the “Average Tumor Size (mm3) ± SEM on Day 7” value ([1]; 0.4 mg/kg) was 0 ± 0 mm3. The “Average Tumor Size (mm3) ± SEM on Day 10” value ([1]; 0.4 mg/kg) was 0 ± 0 mm3, the “Average Tumor Size (mm3) ± SEM on Day 14” value ([1]; 0.4 mg/kg) was 0 ± 0 mm3 and the “Average Tumor Size (mm3) ± SEM on Day 17” value ([1]; 0.4 mg/kg) was 0 ± 0 mm3. For the same substance, the “Average Tumor Size (mm3) ± SEM on Day 21” value ([1]; 0.4 mg/kg) was 0 ± 0 mm3, the “Average Tumor Size (mm3) ± SEM on Day 23” value ([1]; 0.4 mg/kg) was 0 ± 0 mm3 and the “Average Tumor Size (mm3) ± SEM on Day 28” value ([1]; 0.4 mg/kg) was 0 ± 0 mm3. For the same substance, the “Average Tumor Size (mm3) ± SEM on Day 31” value ([1]; 0.4 mg/kg) was 0 ± 0 mm3, the “Average Tumor Size (mm3) ± SEM on Day 35” value ([1]; 0.4 mg/kg) was 0 ± 0 mm3 and the “Average Tumor Size (mm3) ± SEM on Day 42” value ([1]; 0.4 mg/kg) was 0 ± 0 mm3. For the same substance, the “Average Tumor Size (mm3) ± SEM on Day 56” value ([1]; 0.4 mg/kg) was 0 ± 0 mm3, the “Average Tumor Size (mm3) ± SEM on Day 3” value ([1]; 4 mg/kg) was 12.9 ± 1.3 mm3 and the “Average Tumor Size (mm3) ± SEM on Day 7” value ([1]; 4 mg/kg) was 0.6 ± 0.6 mm3. The “Average Tumor Size (mm3) ± SEM on Day 10” value ([1]; 4 mg/kg) was 0 ± 0 mm3, the “Average Tumor Size (mm3) ± SEM on Day 14” value ([1]; 4 mg/kg) was 0 ± 0 mm3 and the “Average Tumor Size (mm3) ± SEM on Day 17” value ([1]; 4 mg/kg) was 0 ± 0 mm3. The “Average Tumor Size (mm3) ± SEM on Day 21” value ([1]; 4 mg/kg) was 0 ± 0 mm3, the “Average Tumor Size (mm3) ± SEM on Day 23” value ([1]; 4 mg/kg) was 0 ± 0 mm3 and the “Average Tumor Size (mm3) ± SEM on Day 28” value ([1]; 4 mg/kg) was 1.9 ± 1.9 mm3. For the same substance, the “Average Tumor Size (mm3) ± SEM on Day 31” value ([1]; 4 mg/kg) was 3.8 ± 3.0 mm3, the “Average Tumor Size (mm3) ± SEM on Day 35” value ([1]; 4 mg/kg) was 9.3 ± 7.5 mm3 and the “Average Tumor Size (mm3) ± SEM on Day 42” value ([1]; 4 mg/kg) was 12.8 ± 12.8 mm3. For the same substance, the “Average Tumor Size (mm3) ± SEM on Day 56” value ([1]; 4 mg/kg) was 17.2 ± 17.2 mm3, the “Radiance [p/s/cm2^2/sr] 26 days post-implantation (mean ± SEM)” value [2] was 1.28E+06 ± 7.36E+05 p/s/cm2^2/sr and the “Radiance [p/s/cm2^2/sr] 31 days post-implantation (mean ± SEM)” value [2] was 1.98E+06 ± 1.36E+06 p/s/cm2^2/sr. The “Radiance [p/s/cm2^2/sr] 34 days post-implantation (mean ± SEM)” value [2] was 4.24E+06 ± 3.69E+06 p/s/cm2^2/sr, the “Radiance [p/s/cm2^2/sr] 38 days post-implantation (mean ± SEM)” value [2] was 3.21E+06 ± 2.52E+06 p/s/cm2^2/sr and the “Radiance [p/s/cm2^2/sr] 40 days post-implantation (mean ± SEM)” value [2] was 3.84E+06 ± 3.34E+06 p/s/cm2^2/sr. For the same substance, the “Radiance [p/s/cm2^2/sr] 47 days post-implantation (mean ± SEM)” value [2] was 7.34E+05 ± 2.62E+04 p/s/cm2^2/sr, the “Radiance [p/s/cm2^2/sr] 54 days post-implantation (mean ± SEM)” value [2] was 6.41E+05 ± 5.96E+04 p/s/cm2^2/sr and the “Radiance [p/s/cm2^2/sr] 61 days post-implantation (mean ± SEM)” value [2] was 6.03E+05 ± 5.29E+04 p/s/cm2^2/sr. For the same substance, the “tumor burden” value ([2]; three doses) was “reduced tumor burdens to background levels in the majority of animals”, the “Radiance [p/s/cm2^2/sr] 5 days post-implantation (mean ± SEM)” value ([2]; before first dose (day 21)) was 5.09E+05 ± 3.56E+04 p/s/cm2^2/sr and the “Radiance [p/s/cm2^2/sr] 11 days post-implantation (mean ± SEM)” value ([2]; before first dose (day 21)) was 6.45E+05 ± 2.39E+04 p/s/cm2^2/sr. The “Radiance [p/s/cm2^2/sr] 20 days post-implantation (mean ± SEM)” value ([2]; before first dose (day 21)) was 2.13E+06 ± 1.69E+05 p/s/cm2^2/sr, the “ka” value (monkey BCMA-MMH) was 223000 M⁻¹ s⁻¹ and the “kd” value (monkey BCMA-MMH) was 0.00864 s⁻¹. The “ka” value (monkey BCMA-MFC) was 482000 M⁻¹ s⁻¹ and the “kd” value (monkey BCMA-MFC) was 7.15e-05 s⁻¹.
